Data taken from US6339146B1, “Cycloalkylated beta-glucoside” (Nikon Shokuhin Kako Co., Ltd., priority 1999, dated 2002).

Assays:
[1] = test system: β-glucosidase derived from Almond; assay: β-Glucosidase inhibition test (pNP-β-Glc hydrolysis); format: biochemical; details: for Activity ratio (pNP-β-glucosidase activity): Almond enzyme, cycloalkyl glucoside 1 mM (table title), no inhibitor = 1.00, pH 5.0, 40° C., 10 minutes
Protocol: (§1) β-Glucosidase inhibition test was performed as follows. 10 mM p-nitrophenyl-β-glucoside (100 μl, abbreviated as pNP-β-Glc hereinafter), 1 M sodium acetate buffer (pH 5.0, 50 μl), pure water, and 100 mM inhibitor (10 μl) were taken into a short test tube so that the mixture should have a total volume of […], and preincubated at 40° C. for 5 minutes. After the incubation, the obtained mixture was added with 50 μl of enzyme solution diluted to a suitable concentration, and allowed to react at 40° C. After 10 minutes, the enzyme was inactivated by adding 500 μl of 1 M sodium carbonate to the obtained reaction mixture, and the absorbance at 405 nm was measured and used for calculation of the amount of free p-nitrophenol. As the inhibitor, cyclopropylmethyl-β-glucoside (CPAM-β-Glc), cyclopentyl-β-glucoside (CPE-β-Glc), and cyclopentylmethyl-β-glucoside (CPEM-β-Glc) all prepared by the methods of Examples 1 and 2were used. As the β-glucosidase, chromatographically purified preparations derived from Aspergillus niger, Trichoderma viride, and Almond (all from SIGMA) were used.

[2] = target: β-glucosidase derived from Aspergillus niger (Aspergillus niger, UniProt A2RAL4); assay: as above; format: biochemical; details: for Activity ratio (pNP-β-glucosidase activity): cycloalkyl glucoside 1 mM (table title), no inhibitor = 1.00, pH 5.0, 40° C., 10 minutes
Protocol: as §1

[3] = target: β-glucosidase derived from Trichoderma viride (Trichoderma viride, UniProt Q6UJY0); assay: as above; format: biochemical; details: T. viride enzyme
Protocol: as §1

gypsophila cut flowers = assay: Aromatic substance formation inhibition effect in cut flowers (organoleptic test); format: in vivo; details: 0.13% (w/v, 5 mM) aqueous solution
Protocol: (§2) A 0.13% (w/v, 5 mM) aqueous solution of the CPEM-β-Glc obtained in Example 2 was prepared. The obtained aqueous solution (300 ml) was introduced into an Erlenmeyer flask, and lily, chrysanthemum, and gypsophila were put into it one for each. On the other hand, as control, the flowers were similarly put into water without the CPEM-β-Glc. After 1, 2 and 4 days, organoleptic test was performed by ten expert panelists as for the aroma emitted from these cut flowers.

[4] = test system: chrysanthemum cut flowers; assay: as above; format: in vivo; details: 0.13% (w/v, 5 mM) aqueous solution
Protocol: as §2

lily cut flowers = assay: as above; format: in vivo; details: 0.13% (w/v, 5 mM) aqueous solution
Protocol: as §2

[5] = test system: rose petal crude enzyme solution (pNP-β-Glc activity); assay: Inhibition test for rose crude enzyme (pNP-β-Glc activity); format: biochemical, Rosa gybrida CV. Wendy
Protocol: as §1
Only petals (about 70 g) were collected from about ten marketed roses (variety; Rosa gybrida CV. Wendy), added with acetone (500 ml) cooled to −20° C., and pulverized by a homogenizer while cooled with dry ice. The obtained pulverized mixture was filtered through a Buchner funnel put with a No. 2 filter paper sheet, and sufficiently washed with acetone at −20° C. The obtained filtrate was dried in a desiccator under reduced pressure (room temperature, 3 hours) to obtain 6 g of crude enzyme powder. This powder was added to 100 mM sodium phosphate buffer (pH 7.0, 120 ml) and stirred at 4° C. for 3 hours, and the insoluble matter was removed by centrifugation. The filtrate was subjected to ultrafiltration utilizing an ultrafiltration membrane PM-10 (Amicon) to finally afford 15 ml of crude enzyme solution.
In the same manner as in Example 3, the inhibition activity of the CPEM-β-Glc obtained in Example 2 for the pNP-β-Glc activity of the above crude enzyme solution was measured. […]

[6] = cycloalkyl glucoside 1 mM (table title), no inhibitor = 1.00, pH 5.0, 40° C., 10 minutes

SMILES | Activity ratio (pNP-β-glucosidase activity) [1] | Activity ratio (pNP-β-glucosidase activity) ([2]; A. niger enzyme) | Activity ratio (pNP-β-glucosidase activity) [3, 6] | Inhibition of β-glucosidase (in words) ([1]; almond enzyme, inhibitor concentration of 1.25 mM) | Difference in 50% inhibition concentration, almond versus A. niger and T. viride β-glucosidases ([1]; ratio of 50% inhibition concentrations) | IC50 ([1]; β-glucosidase derived from almond, concentration varied from 0 to 5 mM, read-out: 50% inhibition concentration) [µM] | activity at 1000 µM ([2]; 10 min, pH 5, read-out: Activity ratio (pNP-β-glucosidase activity)) [%] | Inhibition of β-glucosidase (in words) ([2]; A. niger enzyme, inhibitor concentration of 1.25 mM) | activity at 1000 µM ([3]; 10 min, cycloalkyl glucoside 1 mM (table title), no inhibitor = 1.00, pH 5.0, 40° C., 10 minutes, read-out: Activity ratio (pNP-β-glucosidase activity)) [%] | Inhibition of β-glucosidase (in words) ([3]; inhibitor concentration of 1.25 mM) | Freshness of the cut flowers (gypsophila cut flowers; added versus not added) | Aroma emitted from cut flowers (organoleptic test, ten expert panelists) (gypsophila cut flowers; after one day, versus water) | Freshness of the cut flowers ([4]; added versus not added) | Aroma emitted from cut flowers (organoleptic test, ten expert panelists) ([4]; after one day, versus water) | Freshness of the cut flowers (lily cut flowers; added versus not added) | Aroma emitted from cut flowers (organoleptic test, ten expert panelists) (lily cut flowers; after one day, versus water) | Inhibition activity for pNP-β-Glc activity of rose crude enzyme ([5]; at 3 mM) | Inhibition activity for pNP-β-Glc activity of rose crude enzyme ([5]; at 4 mM) | Inhibition activity for pNP-β-Glc activity of rose crude enzyme ([5]; at 5 mM)
OC[C@H]1O[C@@H](OCC2CC2)[C@H](O)[C@@H](O)[C@@H]1O [CPAM-β-Glc, cyclopropylmethyl-β-glucoside] | 0.86 | 0.94 | 1.01 |  |  |  |  |  |  |  |  |  |  |  |  |  |  |  | 
OC[C@H]1O[C@@H](OC2CCCC2)[C@H](O)[C@@H](O)[C@@H]1O [CPE-β-Glc, cyclopentyl-β-glucoside] | 0.90 | 0.92 | 1.06 |  |  |  |  |  |  |  |  |  |  |  |  |  |  |  | 
OCC1OC(OCC2CCCC2)C(O)C(O)C1O (stereo not drawn) [CPEM-β-Glc, cyclopentylmethyl-β-glucoside] | 0.27 |  |  | strongly inhibited | about 70 times | 170 | 99 | relatively weak inhibition | 105 | no inhibition | No difference | distinctly reduced | No difference | distinctly reduced | No difference | distinctly reduced | about 50% | about 70% | about 90%
